# Measured values published in patent US20120082658A1, “Methods for the Treatment of Allergic Diseases” (VentiRx Pharmaceuticals, Inc., priority 2010, published 2012).
# Like-named read-outs stand apart in the source and are kept apart here.
# Test system: human peripheral blood mononuclear cells (PBMCs)
# Test: Cytokine production in isolated human PBMCs
# Assay type: cell-based
# Conditions: for EC50: Homo sapiens, PBMC
# Protocol: Preclinical studies were performed with VTX-378, the active pharmaceutical ingredient in VTX-1463. The specificity of VTX-378 for human TLR8 relative to other TLRs was assessed in transfected Human Embryonic Kidney 293 (HEK293) cells engineered to express individual TLRs (2-9) via transfection, and assessed using an NF-κB driven reporter system. […] The pharmacologic effects of VTX-378 were characterized in vitro using isolated human peripheral blood mononuclear cells (PBMCs).
structure (smiles),measurement,setting,value
"CC(C)Cn1cnc2c(N)nc3ccccc3c21 [Imiquimod, imiquimod, reference compound]",EC50,"analyte IL-10, read-out: EC50, IL-10 production",17 µM
same,EC50,"analyte IL-12p40, read-out: EC50, IL-12p40 production",0.27 µM
same,"Mean Mediator Level ± SEM, IL-10",Imiquimod 25 uM,59 ± 24 pg/mL
same,"Mean Mediator Level ± SEM, IL-12p40",Imiquimod 25 uM,10.2 ± 3.5 pg/mL
same,"Mean Mediator Level ± SEM, IL-12p70",Imiquimod 25 uM,0.6 ± 0.6 pg/mL
